One data set addresses T1, COX-I (Homo sapiens, UniProt P23219).
T1 construct: Fresh blood was collected by syringe without anticoagulants from volunteers with consent; from tissue; host or cells: fresh human whole blood from volunteers, no anticoagulant, left to clot
Nature of the data set: Whole blood assay for COX-I (TXB2 production). The settings on record: 1 hr at 37° C. It counts as cell-based. The protocol: [B] Inhibiting Activity Against COX-I and COX-II (Whole Blood Assay): (i) Test Method: Whole Blood Assay for COX-I
Fresh blood was collected by syringe without anticoagulants from volunteers with consent. The subjects had no apparent inflammatory conditions and had not taken any medication for at least 7 days prior to blood collection.
500 μl aliquots of human whole blood were immediately incubated with 2 μl of either dimethyl sulfoxide vehicle or a test compound at final concentrations for 1 hr at 37° C. to allow the blood to clot. Appropriate treatments (no incubation) were used as blanks. At the end of the incubation, 5 μl of 250 mM Indomethacin was added to stop the reaction. The blood was centrifuged at 6000×g for 5 min at 4° C. to obtain serum. A 100 μl aliquot of serum was mixed with 400 μl methanol for protein precipitation. The supernatant was obtained by centrifuging at 6000×g for 5 min at 4° C. and was assayed for TXB2 using an enzyme immunoassay kit according to the manufacturer's procedure. For a test compound, the results were expressed as percent inhibition of thromboxane B2(TXB2) production relative to control incubations containing dimethyl sulfoxide vehicle.
The data were analyzed by that a test compound at the indicated concentrations was changed log value and was applied simple linear regression. IC50 value was calculated by least squares method.

The next data set has as its target T2, COX-II (Homo sapiens, UniProt P35354).
T2 construct: lipopolysaccharide for 24 hrs at 37° C. for induction of COX-II; from tissue; host or cells: fresh heparinized human whole blood from volunteers, stimulated with LPS for 24 hrs
T2 sequence (P35354 18-604): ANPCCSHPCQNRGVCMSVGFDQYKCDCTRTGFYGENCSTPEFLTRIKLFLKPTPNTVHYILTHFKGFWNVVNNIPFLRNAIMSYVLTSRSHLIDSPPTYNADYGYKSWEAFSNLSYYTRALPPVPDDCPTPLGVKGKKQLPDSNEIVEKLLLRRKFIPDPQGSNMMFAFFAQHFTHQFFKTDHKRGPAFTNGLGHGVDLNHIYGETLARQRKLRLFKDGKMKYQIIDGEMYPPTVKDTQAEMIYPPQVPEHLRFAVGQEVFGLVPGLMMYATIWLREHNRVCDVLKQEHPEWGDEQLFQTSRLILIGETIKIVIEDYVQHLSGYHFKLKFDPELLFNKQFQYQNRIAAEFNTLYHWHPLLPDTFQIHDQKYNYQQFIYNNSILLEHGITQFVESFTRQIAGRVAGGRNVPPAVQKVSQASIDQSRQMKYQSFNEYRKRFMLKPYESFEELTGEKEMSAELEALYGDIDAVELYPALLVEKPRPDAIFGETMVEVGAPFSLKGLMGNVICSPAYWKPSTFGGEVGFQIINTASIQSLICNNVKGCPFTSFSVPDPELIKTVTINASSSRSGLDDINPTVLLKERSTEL
In words: Whole blood assay for COX-II (LPS-induced PGE2 production). It counts as cell-based. Particulars: lipopolysaccharide 24 hrs at 37° C. The protocol: Whole Blood Assay for COX-II
Fresh blood was collected in heparinized tubes by syringe from volunteers with consent. The subjects had no apparent inflammatory conditions and had not taken any medication for at least 7 days prior to blood collection.
500 μl aliquots of human whole blood were incubated with either 2 μl dimethyl sulfoxide vehicle or 2 μl of a test compound at final concentrations for 15 min at 37° C. This was followed by incubation of the blood with […] of 5 mg/ml lipopolysaccharide for 24 hrs at 37° C. for induction of COX-II. Appropriate PBS treatments (no LPS) were used as blanks. At the end of the incubation, the blood was centrifuged at 6000×g for 5 min at 4° C. to obtain plasma. A 100 μl aliquot of plasma was mixed with 400 μl methanol for protein precipitation. The supernatant was obtained by centrifuging at 6000×g for 5 min at 4° C. and was assayed for prostaglandin E2 (PGE2) using a radioimmunoassay kit after conversion of PGE2 to its methyl oximate derivative according to the manufacturer's procedure.
For a test compound, the results were expressed as percent inhibition of […] production relative to control incubations containing dimethyl sulfoxide vehicle. The data were analyzed by that a test compound at the indicated concentrations was changed log value and was applied simple linear regression. IC50 value was calculated by least squares method.

Data set [1] concerns adjuvant arthritis in rats. Nature of the data set: Analgesic activity: effect on adjuvant arthritis in rats (Randall-Selitto pain threshold). The class given is in vivo, Lewis rats. The settings on record: dose 3.2 mg/kg; ratio of threshold pressure of treated vs non-treated arthritic rats, 2 hrs after administration; ratio of 1.5 = effective dose.

T1 sequence (P23219 24-599): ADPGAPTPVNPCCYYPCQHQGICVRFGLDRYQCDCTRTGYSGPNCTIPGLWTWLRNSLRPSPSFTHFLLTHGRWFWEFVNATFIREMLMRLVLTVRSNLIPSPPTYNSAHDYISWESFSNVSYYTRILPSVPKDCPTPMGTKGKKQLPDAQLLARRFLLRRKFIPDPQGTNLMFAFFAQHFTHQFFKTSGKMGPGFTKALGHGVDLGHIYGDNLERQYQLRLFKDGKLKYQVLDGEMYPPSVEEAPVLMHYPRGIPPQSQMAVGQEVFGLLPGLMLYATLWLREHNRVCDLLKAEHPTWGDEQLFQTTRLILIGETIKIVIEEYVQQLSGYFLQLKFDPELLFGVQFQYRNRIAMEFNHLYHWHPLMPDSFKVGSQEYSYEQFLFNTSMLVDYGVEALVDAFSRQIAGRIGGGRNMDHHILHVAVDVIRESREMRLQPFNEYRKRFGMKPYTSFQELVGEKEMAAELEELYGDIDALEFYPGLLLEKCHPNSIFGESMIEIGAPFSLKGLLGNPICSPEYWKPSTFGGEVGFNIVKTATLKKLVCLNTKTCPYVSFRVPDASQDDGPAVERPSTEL

For the compound `CCOC(=O)c1ccc(-n2cc(C#N)nc2-c2ccc(OC)cc2)cc1` [Example 25-2, 4-Cyano-1-(4-ethoxycarbonylphenyl)-2-(4-methoxyphenyl)-1H-imidazole], the melting point (commonly the temperature of the solid-liquid transition) was 139 to 140 °C.

`COc1ccc(-c2nc(C3CC3)cn2-c2ccc(OC)cc2)cc1.Cl` [Example 20, 4-Cyclopropyl-1-(4-methoxyphenyl)-2-(4-methoxyphenyl)-1H-imidazole hydrochloride] yielded a melting point of 180 to 181 °C. For the same compound, at COX-I, the IC50 (in general, the concentration that inhibits the measured activity by half) is < 10 nM. At COX-II, the IC50 was ≥ 100 nM.

`CCOC(=O)c1cn(-c2ccc(OCc3ccccc3)cc2)c(-c2ccc(OC)nc2)n1` [Example 35-2, 1-(4-Benzyloxyphenyl)-4-ethoxycarbonyl-2-(2-methoxy-5-pyridinyl)-1H-imidazole]: the melting point is 109 to 110 °C.

In the case of `COc1ccc(-c2nc(C(F)(F)F)cn2-c2ccc(C#N)cc2)cn1` [Example 8, 1-(4-Cyanophenyl)-2-(2-methoxy-5-pyridinyl)-4-trifluoromethyl-1H-imidazole], the melting point lay within 155 to 158 °C. In addition, the half-inhibitory concentration (IC50) at COX-I is < 10 nM. Moreover, the 50% inhibitory concentration (IC50) at COX-II is ≥ 100 nM.

With `CCN(C)C(=O)c1cn(-c2ccc(OCc3ccccc3)cc2)c(-c2ccc(OC)cc2)n1` [Example 46, 1-(4-Benzyloxyphenyl)-4-(N-ethyl-N-methylcarbamoyl)-2-(4-methoxyphenyl)-1H-imidazole], the melting point lay within 118 to 119 °C.

Regarding `COc1ccc(-c2nc(C(F)(F)F)cn2-c2ccc(O)cc2)cn1` [Example 6, 1-(4-Hydroxyphenyl)-2-(2-methoxy-5-pyridinyl)-4-trifluoromethyl-1H-imidazole], the melting point is 198 to 200 °C.

`COc1ccc(-c2nc(C(=O)C(C)C)cn2-c2ccc(O)cc2)cn1` [Example 58, 4-Isopropylcarbonyl-1-(4-hydroxyphenyl)-2-(2-methoxy-5-pyridinyl)-1H-imidazole]: the melting point is 185 to 187 °C.

`COc1ccc(-c2nc(C(F)F)cn2-c2ccc(OC)cc2)cc1.Cl` [Example 17, 4-Difluoromethyl-1-(4-methoxyphenyl)-2-(4-methoxyphenyl)-1H-imidazole hydrochloride] came in with a melting point of 150 to 153 °C. In addition, the IC50 on COX-I was < 10 nM. On COX-II, the IC50 is ≥ 100 nM.

The compound `COc1ccc(-c2nc(C#N)cn2-c2ccc(OC)cc2)cc1` [Example 12-2, 4-Cyano-1-(4-methoxyphenyl)-2-(4-methoxyphenyl)-1H-imidazole] came in with a melting point of 132 to 134 °C.

For `COc1ccc(-c2nc(C(F)F)cn2-c2ccc(C#N)cc2)cc1` [Example 34, 1-(4-Cyanophenyl)-4-difluoromethyl-2-(4-methoxyphenyl)-1H-imidazole], the melting point lay in the range of 131 to 132 °C. Besides, the concentration for half-maximal inhibition (IC50) at COX-I was < 10 nM. Also, the IC50 against COX-II is ≥ 100 nM.

Take `CCC(=O)c1cn(-c2ccc(O)cc2)c(-c2ccc(OC)nc2)n1` [Example 56, 4-Ethylcarbonyl-1-(4-hydroxyphenyl)-2-(2-methoxy-5-pyridinyl)-1H-imidazole]: the melting point is 221 to 223 °C.

`CCC(=O)c1cn(-c2ccc(OCc3ccccc3)cc2)c(-c2ccc(OC)nc2)n1` [Example 55, 1-(4-Benzyloxyphenyl)-4-ethylcarbonyl-2-(2-methoxy-5-pyridinyl)-1H-imidazole] yielded a melting point of 126 to 128 °C.

`COc1ccc(-c2nc(C(F)F)cn2-c2ccc(O)cc2)cc1` [Example 32, 4-Difluoromethyl-1-(4-hydroxyphenyl)-2-(4-methoxyphenyl)-1H-imidazole] registered a melting point of 143 to 145 °C.

`COc1ccc(-c2nc(C(=O)C(C)C)cn2-c2ccc(OCc3ccccc3)cc2)cn1` [Example 57, 1-(4-Benzyloxyphenyl)-4-isopropylcarbonyl-2-(2-methoxy-5-pyridinyl)-1H-imidazole] returned a melting point of 118 to 120 °C.

Take `COc1ccc(-c2nc(C#N)cn2-c2ccc(C#N)cc2)cc1` [Example 27, 4-Cyano-1-(4-cyanophenyl)-2-(4-methoxyphenyl)-1H-imidazole]: the melting point lay within 185 to 186 °C.

`COc1ccc(-c2nc(C(=O)O)cn2-c2ccc(OC)cc2)cc1` [Example 18, 4-Carboxy-1-(4-methoxyphenyl)-2-(4-methoxyphenyl)-1H-imidazole] returned a melting point of 102 to 105 °C.

With `CCOC(=O)c1cn(-c2ccc(OC)cc2)c(-c2ccc(OC)nc2)n1` [Example 41-2, 4-Ethoxycarbonyl-1-(4-methoxyphenyl)-2-(2-methoxy-5-pyridinyl)-1H-imidazole], the melting point was in the range of 135 to 137 °C.

With `COc1ccc(-c2nc(C(F)(F)F)cn2-c2ccc(Br)cc2)cc1` [Example 1-2, 1-(4-Bromophenyl)-2-(4-methoxyphenyl)-4-trifluoromethyl-1H-imidazole], the melting point is 140 to 141 °C. For the same compound, the IC50 at COX-I is < 10 nM. On COX-II, the half-maximal inhibitory concentration (IC50) was ≥ 100 nM.

Turning to `COc1ccc(-c2nc(C)cn2-c2ccc(OC)cc2)cc1.Cl` [Example 21, 1-(4-Methoxyphenyl)-2-(4-methoxyphenyl)-4-methyl-1H-imidazole hydrochloride], the melting point lay in the range of 203 to 205 °C. For the same compound, the concentration for half-maximal inhibition (IC50) against COX-I was < 10 nM. Also, the IC50 against COX-II was ≥ 100 nM.

`COc1ccc(-c2nc(C(F)(F)F)cn2-c2ccc(O)cc2)cc1` [Example 62, 1-(4-Hydroxyphenyl)-2-(4-methoxyphenyl)-4-trifluoromethyl-1H-imidazole] had a melting point of 215 to 216 °C.

With `COc1ccc(-n2cc(C#N)nc2-c2ccc(OC)nc2)cc1` [Example 4-2, 4-Cyano-1-(4-methoxyphenyl)-2-(2-methoxy-5-pyridinyl)-1H-imidazole], the melting point was 130 to 132 °C. The half-maximal inhibitory concentration (IC50) against COX-I is < 10 nM. Further, at COX-II, the IC50 is ≥ 100 nM.

In turn, `COc1ccc(-c2nc(C(C)=O)cn2-c2ccc(OC)cc2)cc1` [Example 28, 4-Acetyl-1-(4-methoxyphenyl)-2-(4-methoxyphenyl)-1H-imidazole] returned a melting point of 116 to 117 °C. Further, the “The coefficient of analgesic” value in data set [1] was >1.5.

In the case of `COc1ccc(-c2nc(C(N)=O)cn2-c2ccc(OC)cc2)cc1` [Example 10, 4-Carbamoyl-1-(4-methoxyphenyl)-2-(4-methoxyphenyl)-1H-imidazole], the melting point lay in the range of 167 to 169 °C.

Regarding `CCOC(=O)c1cn(-c2ccc(OC)cc2)c(-c2ccc(OC)cc2)n1` [Example 9, 4-Ethoxycarbonyl-1-(4-methoxyphenyl)-2-(4-methoxyphenyl)-1H-imidazole], the melting point fell in the range of 142 to 143 °C.

As for `CCN(CC)C(=O)c1cn(-c2ccc(OCc3ccccc3)cc2)c(-c2ccc(OC)cc2)n1` [Example 48, 1-(4-Benzyloxyphenyl)-4-(N,N-diethylcarbamoyl)-2-(4-methoxyphenyl)-1H-imidazole], the melting point was 146 to 147 °C.

The record behind these values is patent US20070043084A1, “1,2-Diarylimidazoles useful as inhibitors of cox” (Astellas Pharma Inc., priority 2003, published 2007).
